Measured values taken from patent US9988430B2, “Stable GLP-1 based GLP-1/glucagon receptor co-agonists” (Novo Nordisk A/S, priority 2014, dated 2018).
*1 amine or outer side, *2 acyl side, *3 side chain or, on linkers, in order; H or OH if unused. Where a SMILES comes first, the peptide text is derived from it. Bridges are numbered along the chain shown (N, C = ends). Roman numbers before positions name the chains, in order. Side-chain parts run from the residue outwards. [ ]: non-standard residue; d: D form. The star is where a group is joined. C18 diacid = O=C(O)CCCCCCCCCCCCCCCCC(=O)*; γGlu = O=C(O)[C@H](CCC(=O)[*:2])N[*:1]; Desaminohistidyl = O=C(CCc1c[nH]cn1)*; AEEA = NCCOCCOCC(=O)O; Aib = CC(C)(N)C(=O)O

What was measured:
[1] = Assay (V): chemical stability assessment by RP-UPLC; format: physicochemical; settings: 14 days at 37° C. in phosphate buffer (pH 7.3)
Procedure: Assay (V): Chemical Stability Assessment
The purpose of this assay is to assess the chemical stability of the GLP-1 derivatives of the present invention in aqueous solutions.
Chemical stability of GLP-1 derivatives may be investigated by RP-UPLC separation and UV detection. Lyophilized samples are dissolved in a 8 mM Phosphate buffer pH 8.6, followed by adjustment to pH 7.3 using HCl to a final concentration of 333 μM. Samples are incubated for 14 days at 5° C. and 37° C. followed by RP-UPLC analysis. Purity is defined as the area percentage of the main peak in relation to the total area of all integrated peaks in each chromatogram. Purity loss, also referred to herein as chemical degradation, after 14 days at 37° C. is determined as the difference in purity between the samples incubated at 5° C. and 37° C., divided by the purity of the sample after incubation for 14 days at 5° C.
RP-UPLC analysis is performed using a Waters BEH130 2.1 mm×150 mm, 1.7 μm column operated at 50° C. and a flow rate of 0.4 mL/min using a mobile phase system consisting of A: 0.05% TFA in MQ-water, and B: 0.05% TFA in Acetonitrile. UV-detection is performed at 215 nm. The typical gradient profile used for most of the samples is shown below.
For some individual derivatives eluting at substantially different retention times compared with the majority of derivatives, some adjustments to the gradient profile are made to better enable purity assessment comparison across samples.

human GLP-1 receptor = target: T1, human GLP-1 receptor (Homo sapiens, UniProt P43220); assay: Assay (I)(a): GLP-1 receptor potency, CRE luciferase reporter gene assay in BHK cells; format: cell-based; settings: BHK cells expressing human GLP-1 receptor, read-out: EC50 GLP-1R
T1 construct: expressed in transfected cells; host or cells: membranes of BHK cells, parent line BHKTS13, clone FCW467-12A
How it was run: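 BHK cells (clone FCW467-12A/KZ10-1), 5×10EE3/well, exposed 3 h at 37° C to compound at 1×10EE-13 to 1×10EE-6 M final in medium with 2% ovalbumin and 0.2% Pluronic F-68. Luciferase luminescence read; EC50 (pM) from four-parameter fit.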

T1 sequence (P43220 24-463): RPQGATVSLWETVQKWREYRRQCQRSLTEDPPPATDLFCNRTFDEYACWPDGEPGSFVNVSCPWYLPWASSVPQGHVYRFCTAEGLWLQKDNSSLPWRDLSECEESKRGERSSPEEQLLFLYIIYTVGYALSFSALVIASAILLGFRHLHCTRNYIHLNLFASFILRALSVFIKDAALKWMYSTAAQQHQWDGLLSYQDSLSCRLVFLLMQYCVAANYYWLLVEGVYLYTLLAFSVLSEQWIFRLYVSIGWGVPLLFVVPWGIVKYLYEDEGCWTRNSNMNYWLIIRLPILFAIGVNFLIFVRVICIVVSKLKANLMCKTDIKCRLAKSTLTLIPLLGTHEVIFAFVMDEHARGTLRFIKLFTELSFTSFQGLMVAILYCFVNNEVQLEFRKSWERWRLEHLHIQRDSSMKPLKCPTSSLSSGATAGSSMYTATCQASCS

Row | SMILES | Chemical stability: Chemical degradation over 14 days at 37° C. [1] [%] | EC50 (human GLP-1 receptor) [pM]
1 | CC[C@H](C)[C@H](NC(=O)[C@H](Cc1ccccc1)NC(=O)[C@H](CCC(=O)O)NC(=O)[C@H](CCCNC(=N)N)NC(=O)[C@H](C)NC(=O)[C@H](C)NC(=O)[C@H](CCC(N)=O)NC(=O)[C@H](CCC(=O)O)NC(=O)[C@H](CCC(=O)O)NC(=O)[C@H](CC(C)C)NC(=O)[C@H](Cc1ccc(O)cc1)NC(=O)[C@H](CCCNC(=N)N)NC(=O)[C@H](CO)NC(=O)[C@@H](NC(=O)[C@H](CC(=O)O)NC(=O)[C@H](CO)NC(=O)[C@@H](NC(=O)[C@H](Cc1ccccc1)NC(=O)[C@@H](NC(=O)CNC(=O)[C@H](Cc1c[nH]cn1)NC(=O)C(C)(C)NC(=O)CCc1c[nH]cn1)[C@@H](C)O)[C@@H](C)O)C(C)C)C(=O)N[C@@H](C)C(=O)N[C@@H](Cc1c[nH]c2ccccc12)C(=O)N[C@@H](CC(C)C)C(=O)N[C@@H](CC(C)C)C(=O)N[C@@H](CCCCNC(=O)CNC(=O)[C@H](CO)NC(=O)[C@H](CCC(=O)O)NC(=O)CNC(=O)[C@H](CO)NC(=O)CC[C@H](NC(=O)CC[C@H](NC(=O)CCCCCCCCCCCCCCCCC(=O)O)C(=O)O)C(=O)O)C(=O)N[C@H](C(N)=O)[C@@H](C)O [Example 7, N^ε34-[2-[[(2S)-2-[[(2S)-4-carboxy-2-[[2-[[(2S)-2-[[(4S)-4-carboxy-4-[[(4S)-4-carboxy-4-(17-carboxyheptadecanoylamino)butanoyl]amino]butanoyl]amino]-3-hydroxypropanoyl]amino]acetyl]amino]butanoyl]amino]-3-hydroxypropanoyl]amino]acetyl]-[Imp7,Aib8,His9,Arg18,Glu22,Arg26,Leu33,Thr35]-GLP-1-(7-35)-peptide amide] (I: Desaminohistidyl-[Aib]HGTFTSDVSRYLEEQAAREFIAWLLKT-NH2 / II: {C18 diacid-γGlu-γGlu}-SGESG; amide I:27-II:C) | 0.0 | 6
2 | CC[C@H](C)[C@H](NC(=O)[C@H](Cc1ccccc1)NC(=O)[C@H](CCC(=O)O)NC(=O)[C@H](CCCNC(=N)N)NC(=O)[C@H](C)NC(=O)[C@H](C)NC(=O)[C@H](CCCNC(=N)N)NC(=O)[C@H](C)NC(=O)[C@H](CCC(=O)O)NC(=O)[C@H](CC(C)C)NC(=O)[C@H](Cc1ccc(O)cc1)NC(=O)[C@H](CCCCN)NC(=O)[C@H](CO)NC(=O)[C@@H](NC(=O)[C@H](CC(=O)O)NC(=O)[C@H](CO)NC(=O)[C@@H](NC(=O)[C@H](Cc1ccccc1)NC(=O)[C@@H](NC(=O)CNC(=O)[C@H](Cc1c[nH]cn1)NC(=O)C(C)(C)NC(=O)CCc1c[nH]cn1)[C@@H](C)O)[C@@H](C)O)C(C)C)C(=O)N[C@@H](C)C(=O)N[C@@H](Cc1c[nH]c2ccccc12)C(=O)N[C@@H](CC(C)C)C(=O)N[C@@H](CC(C)C)C(=O)N[C@@H](CCCCNC(=O)CC[C@H](NC(=O)COCCOCCNC(=O)COCCOCCNC(=O)CC[C@H](NC(=O)CC[C@H](NC(=O)CCCCCCCCCCCCCCCCC(=O)O)C(=O)O)C(=O)O)C(=O)O)C(=O)NCC(=O)NCC(=O)NCC(=O)O [Example 31, N^ε34-[(4S)-4-carboxy-4-[[2-[2-[2-[[2-[2-[2-[[(4S)-4-carboxy-4-[[(4S)-4-carboxy-4-(17-carboxyheptadecanoylamino)butanoyl]amino]butanoyl]amino]ethoxy]ethoxy]acetyl]amino]ethoxy]ethoxy]acetyl]amino]butanoyl]-[Imp7,Aib8,His9,Lys18,Ala22,Arg23,Arg26,Leu33,Gly36]-GLP-1-(7-37)-peptide] (Desaminohistidyl-[Aib]HGTFTSDVSKYLEARAAREFIAWLLK([γGlu-AEEA-AEEA-γGlu-γGlu-C18 diacid])GGG-OH) | 0.1 | 
3 | CC[C@H](C)[C@H](NC(=O)[C@H](Cc1ccccc1)NC(=O)[C@H](CCC(=O)O)NC(=O)[C@H](CCCNC(=N)N)NC(=O)[C@H](C)NC(=O)[C@H](C)NC(=O)[C@H](CCC(N)=O)NC(=O)CNC(=O)[C@H](CCC(=O)O)NC(=O)[C@H](CC(C)C)NC(=O)[C@H](Cc1ccc(O)cc1)NC(=O)[C@H](CCCNC(=N)N)NC(=O)[C@H](CO)NC(=O)[C@@H](NC(=O)[C@H](CC(=O)O)NC(=O)[C@H](CO)NC(=O)[C@@H](NC(=O)[C@H](Cc1ccccc1)NC(=O)[C@@H](NC(=O)CNC(=O)[C@H](Cc1c[nH]cn1)NC(=O)C(C)(C)NC(=O)CCc1c[nH]cn1)[C@@H](C)O)[C@@H](C)O)C(C)C)C(=O)N[C@@H](C)C(=O)N[C@@H](Cc1c[nH]c2ccccc12)C(=O)N[C@@H](CC(C)C)C(=O)N[C@@H](CC(C)C)C(=O)N[C@@H](CCCCNC(=O)CNC(=O)[C@H](CO)NC(=O)[C@H](CCC(=O)O)NC(=O)CNC(=O)[C@H](CO)NC(=O)CC[C@H](NC(=O)CC[C@H](NC(=O)CCCCCCCCCCCCCCCCC(=O)O)C(=O)O)C(=O)O)C(=O)N[C@H](C(N)=O)[C@@H](C)O [Example 8, N^ε34-[2-[[(2S)-2-[[(2S)-4-carboxy-2-[[2-[[(2S)-2-[[(4S)-4-carboxy-4-[[(4S)-4-carboxy-4-(17-carboxyheptadecanoylamino)butanoyl]amino]butanoyl]amino]-3-hydroxypropanoyl]amino]acetyl]amino]butanoyl]amino]-3-hydroxypropanoyl]amino]acetyl]-[Imp7,Aib8,His9,Arg18,Arg26,Leu33,Thr35]-GLP-1-(7-35)-peptide amide] (I: Desaminohistidyl-[Aib]HGTFTSDVSRYLEGQAAREFIAWLLKT-NH2 / II: {C18 diacid-γGlu-γGlu}-SGESG; amide I:27-II:C) | 1.6 | 
4 | CC[C@H](C)[C@H](NC(=O)[C@H](Cc1ccccc1)NC(=O)[C@H](CCC(=O)O)NC(=O)[C@H](CCCNC(=N)N)NC(=O)[C@H](C)NC(=O)[C@H](C)NC(=O)[C@H](CCC(N)=O)NC(=O)[C@H](CCC(=O)O)NC(=O)[C@H](CCC(=O)O)NC(=O)[C@H](CC(C)C)NC(=O)[C@H](Cc1ccc(O)cc1)NC(=O)[C@H](CCCCN)NC(=O)[C@H](CO)NC(=O)[C@@H](NC(=O)[C@H](CC(=O)O)NC(=O)[C@H](CO)NC(=O)[C@@H](NC(=O)[C@H](Cc1ccccc1)NC(=O)[C@@H](NC(=O)CNC(=O)[C@H](Cc1c[nH]cn1)NC(=O)C(C)(C)NC(=O)CCc1c[nH]cn1)[C@@H](C)O)[C@@H](C)O)C(C)C)C(=O)N[C@@H](C)C(=O)N[C@@H](Cc1c[nH]c2ccccc12)C(=O)N[C@@H](CC(C)C)C(=O)N[C@@H](CC(C)C)C(=O)N[C@@H](CCCCNC(=O)COCCOCCNC(=O)COCCOCCNC(=O)CC[C@H](NC(=O)CC[C@H](NC(=O)CCCCCCCCCCCCCCCCC(=O)O)C(=O)O)C(=O)O)C(=O)N[C@H](C(N)=O)[C@@H](C)O [Example 5, N^ε34-[2-[2-[2-[[2-[2-[2-[[(4S)-4-carboxy-4-[[(4S)-4-carboxy-4-(17-carboxyheptadecanoylamino)butanoyl]amino]butanoyl]amino]ethoxy]ethoxy]acetyl]amino]ethoxy]ethoxy]acetyl]-[Imp7,Aib8,His9,Lys18,Glu22,Arg26,Leu33,Thr35]-GLP-1-(7-35)-peptide amide] (Desaminohistidyl-[Aib]HGTFTSDVSKYLEEQAAREFIAWLLK([AEEA-AEEA-γGlu-γGlu-C18 diacid])T-NH2) | 0.4 | 
5 | CC[C@H](C)[C@H](NC(=O)[C@H](Cc1ccccc1)NC(=O)[C@H](CCC(=O)O)NC(=O)[C@H](CCCNC(=N)N)NC(=O)[C@H](C)NC(=O)[C@H](C)NC(=O)[C@H](CCCNC(=N)N)NC(=O)CNC(=O)[C@H](CCC(=O)O)NC(=O)[C@H](CC(C)C)NC(=O)[C@H](Cc1ccc(O)cc1)NC(=O)[C@H](CCCNC(=N)N)NC(=O)[C@H](CO)NC(=O)[C@@H](NC(=O)[C@H](CC(=O)O)NC(=O)[C@H](CO)NC(=O)[C@@H](NC(=O)[C@H](Cc1ccccc1)NC(=O)[C@@H](NC(=O)CNC(=O)[C@H](Cc1c[nH]cn1)NC(=O)C(C)(C)NC(=O)CCc1c[nH]cn1)[C@@H](C)O)[C@@H](C)O)C(C)C)C(=O)N[C@@H](C)C(=O)N[C@@H](Cc1c[nH]c2ccccc12)C(=O)N[C@@H](CC(C)C)C(=O)N[C@@H](CC(C)C)C(=O)N[C@@H](CCCCNC(=O)CC[C@H](NC(=O)CC[C@H](NC(=O)COCCOCCNC(=O)CC[C@H](NC(=O)CC[C@H](NC(=O)CCCCCCCCCCCCCCCCC(=O)O)C(=O)O)C(=O)O)C(=O)O)C(=O)O)C(=O)NCC(=O)N[C@@H](C)C(=O)NCC(=O)O [Example 35, N^ε34-[(4S)-4-carboxy-4-[[(4S)-4-carboxy-4-[[2-[2-[2-[[(4S)-4-carboxy-4-[[(4S)-4-carboxy-4-(17-carboxyheptadecanoylamino)butanoyl]amino]butanoyl]amino]ethoxy]ethoxy]acetyl]amino]butanoyl]amino]butanoyl]-[Imp7,Aib8,His9,Arg18,Arg23,Arg26,Leu33,Ala36]-GLP-1-(7-37)-peptide] (Desaminohistidyl-[Aib]HGTFTSDVSRYLEGRAAREFIAWLLK([γGlu-γGlu-AEEA-γGlu-γGlu-C18 diacid])GAG-OH) |  | 3
